According to the supplement of paper PMC10307832:

Compound: CC1=CC(=CC=C1)NC2=NC(=CS2)C3=CC=NC=C3 + Cc1nc(NC(=O)N2CCC[C@H]2C(N)=O)sc1-c1ccnc(C(C)(C)C(F)(F)F)c1 [Alpelisib] (partner 2 µM)
Experiment: relative viability (nuclei count vs DMSO), 5 days (fraction); higher = more cells survive
Settings: first compound 0.08 µM
Outline: (§1)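 A single step with final 0.05% Triton X-100, 1% formaldehyde and 1 ug/ml Hoechst fixed the cells and stained nuclei 5 days after treatment. Lung cancer cell lines in 1536-well plates had been treated by pin tool the day after seeding with one drug alone or a fixed anchor-drug dose plus five library-drug doses (not always all listed) in √10 steps, and nuclei were counted on 4× images. Relative viability is the ratio of nuclei in treated wells to nuclei in vehicle wells, taken as the median of duplicate plates.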

| Cell Line | relative viability |
| --- | --- |
| EKVX | 0.764 |
| LC-2-ad | 0.859 |
| NCI-H1993 | 0.683 |
| SK-LU-1 | 0.955 |
| SK-MES-1 | 0.626 |
| NCI-H661 | 0.469 |
| RERF-LC-KJ | 1.01 |

Same assay, conditions: first compound 0.253 µM

| Cell Line | relative viability |
| --- | --- |
| EKVX | 0.812 |
| LC-2-ad | 0.698 |
| NCI-H1993 | 0.683 |
| SK-LU-1 | 0.934 |
| SK-MES-1 | 0.862 |
| NCI-H661 | 0.462 |
| RERF-LC-KJ | 0.83 |

Same assay, conditions: first compound 0.8 µM

| Cell Line | relative viability |
| --- | --- |
| EKVX | 0.824 |
| LC-2-ad | 0.812 |
| NCI-H1993 | 0.719 |
| SK-LU-1 | 0.617 |
| SK-MES-1 | 0.893 |
| NCI-H661 | 0.971 |
| RERF-LC-KJ | 0.773 |

Same assay, conditions: first compound 2.53 µM

| Cell Line | relative viability |
| --- | --- |
| EKVX | 0.643 |
| LC-2-ad | 0.813 |
| NCI-H1993 | 0.644 |
| SK-LU-1 | 0.992 |
| SK-MES-1 | 0.853 |
| NCI-H661 | 0.724 |
| RERF-LC-KJ | 0.715 |

Same assay, conditions: first compound 8 µM

| Cell Line | relative viability |
| --- | --- |
| EKVX | 0.656 |
| LC-2-ad | 0.817 |
| NCI-H1993 | 0.619 |
| SK-LU-1 | 0.852 |
| SK-MES-1 | 0.848 |
| NCI-H661 | 1.01 |
| RERF-LC-KJ | 0.654 |

Compound: Cc1ccc(NC(=O)c2ccc(CN3CCN(C)CC3)cc2)cc1Nc1nc(-c2cccnc2)cs1 [Masitinib] + CC(=O)Nc1cccc(-n2c(=O)n(C3CC3)c(=O)c3c(Nc4ccc(I)cc4F)n(C)c(=O)c(C)c32)c1 [Trametinib] (partner 0.02 µM)
Experiment: as above
Settings: first compound 0.01 µM
Outline: as §1

| Cell Line | relative viability |
| --- | --- |
| EKVX | 0.38 |
| LC-2-ad | 0.92 |
| NCI-H1993 | 0.483 |
| SK-LU-1 | 0.513 |
| SK-MES-1 | 0.519 |
| NCI-H661 | 0.493 |
| RERF-LC-KJ | 0.769 |

Same assay, conditions: first compound 0.03162 µM

| Cell Line | relative viability |
| --- | --- |
| EKVX | 0.27 |
| LC-2-ad | 0.917 |
| NCI-H1993 | 0.437 |
| SK-LU-1 | 0.406 |
| SK-MES-1 | 0.528 |
| NCI-H661 | 0.486 |
| RERF-LC-KJ | 0.836 |

Same assay, conditions: first compound 0.1 µM

| Cell Line | relative viability |
| --- | --- |
| EKVX | 0.353 |
| LC-2-ad | 0.911 |
| NCI-H1993 | 0.578 |
| SK-LU-1 | 0.534 |
| SK-MES-1 | 0.561 |
| NCI-H661 | 0.563 |
| RERF-LC-KJ | 0.834 |

Same assay, conditions: first compound 0.3162 µM

| Cell Line | relative viability |
| --- | --- |
| LC-2-ad | 0.941 |
| NCI-H1993 | 0.508 |
| SK-LU-1 | 0.555 |
| SK-MES-1 | 0.485 |
| NCI-H661 | 0.591 |
| RERF-LC-KJ | 0.809 |

Same assay, conditions: first compound 1 µM

| Cell Line | relative viability |
| --- | --- |
| EKVX | 0.249 |
| LC-2-ad | 0.93 |
| NCI-H1993 | 0.538 |
| SK-LU-1 | 0.464 |
| SK-MES-1 | 0.514 |
| NCI-H661 | 0.564 |
| RERF-LC-KJ | 0.763 |

Compound: Cc1ccc(NC(=O)c2ccc(CN3CCN(C)CC3)cc2)cc1Nc1nc(-c2cccnc2)cs1 [Masitinib] + CCNC(=O)c1noc(-c2cc(C(C)C)c(O)cc2O)c1-c1ccc(CN2CCOCC2)cc1 [Luminespib] (partner 0.01 µM)
Experiment: as above
Settings: first compound 0.01 µM
Outline: as §1

| Cell Line | relative viability |
| --- | --- |
| LC-2-ad | 0.918 |
| NCI-H1993 | 0.851 |
| SK-LU-1 | 0.208 |
| SK-MES-1 | 0.544 |
| NCI-H661 | 0.831 |
| RERF-LC-KJ | 1.41 |

Same assay, conditions: first compound 0.03162 µM

| Cell Line | relative viability |
| --- | --- |
| EKVX | 0.997 |
| LC-2-ad | 1.18 |
| NCI-H1993 | 0.791 |
| SK-LU-1 | 0.195 |
| SK-MES-1 | 0.776 |
| NCI-H661 | 0.916 |
| RERF-LC-KJ | 1.15 |

Same assay, conditions: first compound 0.1 µM

| Cell Line | relative viability |
| --- | --- |
| EKVX | 0.599 |
| LC-2-ad | 1.04 |
| NCI-H1993 | 0.701 |
| SK-LU-1 | 0.2 |
| SK-MES-1 | 0.992 |
| NCI-H661 | 0.951 |
| RERF-LC-KJ | 1.42 |

Same assay, conditions: first compound 0.3162 µM

| Cell Line | relative viability |
| --- | --- |
| EKVX | 0.93 |
| LC-2-ad | 0.916 |
| NCI-H1993 | 0.7 |
| SK-LU-1 | 0.221 |
| SK-MES-1 | 0.707 |
| NCI-H661 | 0.897 |
| RERF-LC-KJ | 1.23 |

Same assay, conditions: first compound 1 µM

| Cell Line | relative viability |
| --- | --- |
| EKVX | 0.786 |
| LC-2-ad | 0.929 |
| NCI-H1993 | 0.766 |
| SK-LU-1 | 0.193 |
| SK-MES-1 | 0.686 |
| NCI-H661 | 0.903 |
| RERF-LC-KJ | 1.27 |

Compound: Cc1ccc(NC(=O)c2ccc(CN3CCN(C)CC3)cc2)cc1Nc1nc(-c2cccnc2)cs1 [Masitinib] + C[C@]1(O)C[C@@H](c2nc(-c3ccc4ccc(-c5ccccc5)nc4c3)c3c(N)nccn32)C1 [Linsitinib] (partner 1 µM)
Experiment: as above
Settings: first compound 0.01 µM
Outline: as §1

| Cell Line | relative viability |
| --- | --- |
| LC-2-ad | 0.876 |
| NCI-H1993 | 0.732 |
| SK-LU-1 | 1.06 |
| SK-MES-1 | 1.11 |
| NCI-H661 | 0.653 |
| RERF-LC-KJ | 0.878 |

Same assay, conditions: first compound 0.03162 µM

| Cell Line | relative viability |
| --- | --- |
| EKVX | 0.87 |
| LC-2-ad | 0.83 |
| SK-LU-1 | 1.22 |
| SK-MES-1 | 1.18 |
| NCI-H661 | 0.569 |
| RERF-LC-KJ | 0.849 |

Same assay, conditions: first compound 0.1 µM

| Cell Line | relative viability |
| --- | --- |
| EKVX | 0.876 |
| LC-2-ad | 0.791 |
| NCI-H1993 | 0.733 |
| SK-LU-1 | 1.26 |
| SK-MES-1 | 1.16 |
| NCI-H661 | 0.577 |
| RERF-LC-KJ | 0.926 |

Same assay, conditions: first compound 0.3162 µM

| Cell Line | relative viability |
| --- | --- |
| EKVX | 0.881 |
| LC-2-ad | 0.855 |
| NCI-H1993 | 0.659 |
| SK-LU-1 | 1.43 |
| SK-MES-1 | 1.03 |
| NCI-H661 | 0.584 |
| RERF-LC-KJ | 0.871 |

Same assay, conditions: first compound 1 µM

| Cell Line | relative viability |
| --- | --- |
| EKVX | 1.06 |
| LC-2-ad | 0.833 |
| NCI-H1993 | 0.665 |
| SK-LU-1 | 1.25 |
| SK-MES-1 | 0.987 |
| NCI-H661 | 0.428 |
| RERF-LC-KJ | 0.736 |
